The results in this text go back to patent US20210130352A1, “OGA INHIBITOR COMPOUNDS” (Janssen Pharmaceutica NV, priority 2018, published 2021).

Molecules are shown by their SMILES.

In the case of `Cc1ccc2c(ccn2C)c1Nc1nccc2c1ccn2CC(=O)N(C)C` [Co. No. 2], the melting point was determined as 251.73 °C.
In the case of `COc1nccc(C)c1Nc1nccc2c1ccn2CC(=O)N(C)C` [Co. No. 4] it was 221.78 °C; in that of `CN(C)C(=O)Cn1ccc2c(Nc3c(Cl)cccc3Cl)nccc21` [Co. No. 5], 215.7 °C.
As to `Cc1cc(C(F)(F)F)cc(C(C)C)c1Nc1nccc2c1ccn2CC(=O)N(C)C` [Co. No. 6], the melting point came out at 228.29 °C.
Next, `Cc1cncc(Cl)c1Nc1nccc2c1ccn2CC(=O)N1CCC1` [Co. No. 12]: 211.88 °C; `Cc1cc(C(F)(F)F)cc(C)c1Nc1nccc2c1ccn2CC(=O)N(C)C` [Co. No. 18]: 214.46 °C; `Cc1cccc(C(F)(F)F)c1Nc1nccc2c1ccn2CC(=O)N(C)C` [Co. No. 21]: 187.16 °C.
Next, `Cc1cccc(Cl)c1Nc1nccc2c1ccn2CC(=O)N(C)C` [Co. No. 22]: 211.1 °C.
In the case of `CN(C)C(=O)Cn1ccc2c(Nc3c(F)cccc3Cl)nccc21` [Co. No. 23], the melting point came to 202.75 °C.
On to `CN(C)C(=O)Cn1ccc2c(Nc3c(Cl)cccc3OC(F)(F)F)nccc21` [Co. No. 24], for which the melting point amounted to 200.76 °C.
Compound `CC(C)c1cc(OC(F)(F)F)cc(Cl)c1Nc1nccc2c1ccn2CC(=O)N(C)C` [Co. No. 27] displayed a melting point of 69.34 °C.
